Measurements from the kinase profiling compilation of Christmann-Franck et al. (2016).

Legend:
Test in all cases: radiometric filter-binding kinase assay
[1] = tested on: AKT2 (human), P31751 [S474D]
BTK (human) = BTK (human) (UniProt Q06187)
CDK2 CCNA2 (human) = CDK2 CCNA2 (human) (UniProt P20248+P24941)
CHEK2 (human) = CHEK2 (human) (UniProt O96017); details: compound 10.0 µM
CSK (human) = CSK (human) (UniProt P41240)
CSNK1D (human) = CSNK1D (human) (UniProt P48730)
EPHA4 (human) = EPHA4 (human) (UniProt P54764)
EPHB1 (human) = EPHB1 (human) (UniProt P54762)
EPHB4 (human) = EPHB4 (human) (UniProt P54760); details: compound 1.0 µM
FLT1 (human) = FLT1 (human) (UniProt P17948)
IKBKB (human) = IKBKB (human) (UniProt O14920)
IKBKE (human) = IKBKE (human) (UniProt Q14164); details: compound 10.0 µM
INSRR (human) = INSRR (human) (UniProt P14616)
MAP2K1 (human) = MAP2K1 (human) (UniProt Q02750)
MAPK1 (human) = MAPK1 (human) (UniProt P28482)
MAPK14 (human) = MAPK14 (human) (UniProt Q16539)
MAPK15 (human) = MAPK15 (human) (UniProt Q8TD08)
MAPK3 (human) = MAPK3 (human) (UniProt P27361)
MAPKAPK3 (human) = MAPKAPK3 (human) (UniProt Q16644)
MKNK2 (human) = MKNK2 (human) (UniProt Q9HBH9)
NEK2 (human) = NEK2 (human) (UniProt P51955)
NEK6 (human) = NEK6 (human) (UniProt Q9HC98)
PAK7 (human) = PAK7 (human) (UniProt Q9P286)
PIM2 (human) = PIM2 (human) (UniProt Q9P1W9)
PLK1 (human) = PLK1 (human) (UniProt P53350)
PRKAA1 or PRKAA2 (rat) = details: accession and sequence are those of the human protein
PRKACA (human) = PRKACA (human) (UniProt P17612)
RIPK2 (human) = RIPK2 (human) (UniProt O43353)
RPS6KA1 KD1 KD2 (human) = RPS6KA1 KD1 KD2 (human) (UniProt Q15418)
RPS6KA5 KD1 KD2 (human) = RPS6KA5 KD1 KD2 (human) (UniProt O75582)
[2] = tested on: RPS6KB1 (human), P23443 [T412E]
SRC (human) = SRC (human) (UniProt P12931)
SYK (human) = SYK (human) (UniProt P43405); details: compound 10.0 µM
TTK (human) = TTK (human) (UniProt P33981)

Chain of NEK2 (human) (P51955 whole entry, looked up): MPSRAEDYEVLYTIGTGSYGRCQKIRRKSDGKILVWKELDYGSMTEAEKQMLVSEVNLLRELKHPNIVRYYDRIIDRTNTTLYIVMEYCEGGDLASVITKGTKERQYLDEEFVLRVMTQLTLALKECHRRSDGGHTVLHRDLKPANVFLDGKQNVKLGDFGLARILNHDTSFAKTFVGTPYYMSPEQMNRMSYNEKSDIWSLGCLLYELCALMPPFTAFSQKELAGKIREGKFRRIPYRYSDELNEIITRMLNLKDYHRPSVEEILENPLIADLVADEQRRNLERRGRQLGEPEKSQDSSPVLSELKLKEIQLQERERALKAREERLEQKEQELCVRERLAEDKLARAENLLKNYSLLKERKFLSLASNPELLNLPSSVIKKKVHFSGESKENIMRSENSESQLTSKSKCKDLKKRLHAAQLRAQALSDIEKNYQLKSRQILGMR
Chain of RPS6KA1 KD1 KD2 (human) (Q15418 whole entry, looked up): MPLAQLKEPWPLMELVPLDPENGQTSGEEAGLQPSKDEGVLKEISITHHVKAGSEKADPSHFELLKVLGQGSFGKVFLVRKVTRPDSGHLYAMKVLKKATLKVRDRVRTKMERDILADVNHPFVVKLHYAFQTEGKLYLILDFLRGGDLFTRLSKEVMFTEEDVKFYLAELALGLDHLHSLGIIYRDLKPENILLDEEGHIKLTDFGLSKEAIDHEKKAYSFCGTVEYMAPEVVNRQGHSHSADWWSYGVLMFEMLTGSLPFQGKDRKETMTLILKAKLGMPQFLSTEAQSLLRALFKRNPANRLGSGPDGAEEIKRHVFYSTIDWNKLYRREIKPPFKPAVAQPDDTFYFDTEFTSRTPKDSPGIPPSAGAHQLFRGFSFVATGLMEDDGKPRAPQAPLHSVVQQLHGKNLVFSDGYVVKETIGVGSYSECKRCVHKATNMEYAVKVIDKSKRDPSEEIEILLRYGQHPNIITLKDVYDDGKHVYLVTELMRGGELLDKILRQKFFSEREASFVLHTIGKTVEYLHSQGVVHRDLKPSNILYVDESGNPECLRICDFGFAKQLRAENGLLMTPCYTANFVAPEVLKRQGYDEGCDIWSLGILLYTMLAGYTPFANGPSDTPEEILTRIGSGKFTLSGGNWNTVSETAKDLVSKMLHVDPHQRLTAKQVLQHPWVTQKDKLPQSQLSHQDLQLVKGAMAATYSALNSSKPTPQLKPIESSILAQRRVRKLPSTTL
Chain of SRC (human) (P12931 whole entry, looked up): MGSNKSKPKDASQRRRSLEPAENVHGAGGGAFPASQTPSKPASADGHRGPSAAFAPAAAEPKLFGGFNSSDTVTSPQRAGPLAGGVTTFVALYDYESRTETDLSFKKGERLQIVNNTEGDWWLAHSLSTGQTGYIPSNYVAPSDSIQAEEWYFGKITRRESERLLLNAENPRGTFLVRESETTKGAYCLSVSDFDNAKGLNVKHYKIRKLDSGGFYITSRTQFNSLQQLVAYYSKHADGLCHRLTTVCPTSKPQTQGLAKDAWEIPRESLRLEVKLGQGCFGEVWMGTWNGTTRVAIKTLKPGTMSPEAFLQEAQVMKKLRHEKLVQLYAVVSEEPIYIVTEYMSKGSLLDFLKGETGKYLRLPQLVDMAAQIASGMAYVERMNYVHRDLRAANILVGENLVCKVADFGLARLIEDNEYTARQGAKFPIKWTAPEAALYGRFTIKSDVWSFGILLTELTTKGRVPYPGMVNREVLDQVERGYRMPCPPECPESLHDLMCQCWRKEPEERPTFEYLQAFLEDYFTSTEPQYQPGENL
Chain of MKNK2 (human) (Q9HBH9 whole entry, looked up): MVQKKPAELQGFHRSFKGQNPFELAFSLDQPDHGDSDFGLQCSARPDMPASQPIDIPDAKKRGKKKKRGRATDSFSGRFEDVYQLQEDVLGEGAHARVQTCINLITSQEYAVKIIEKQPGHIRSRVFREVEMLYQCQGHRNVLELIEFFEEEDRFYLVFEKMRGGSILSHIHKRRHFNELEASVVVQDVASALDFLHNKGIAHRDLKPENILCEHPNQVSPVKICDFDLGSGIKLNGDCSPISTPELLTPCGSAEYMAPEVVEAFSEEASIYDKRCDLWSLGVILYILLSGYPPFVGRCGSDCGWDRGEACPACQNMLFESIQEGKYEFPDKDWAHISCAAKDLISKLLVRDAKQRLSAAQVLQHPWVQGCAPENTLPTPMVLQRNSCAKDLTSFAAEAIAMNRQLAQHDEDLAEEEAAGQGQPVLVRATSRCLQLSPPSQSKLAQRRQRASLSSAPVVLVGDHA
Chain of RPS6KA5 KD1 KD2 (human) (O75582 whole entry, looked up): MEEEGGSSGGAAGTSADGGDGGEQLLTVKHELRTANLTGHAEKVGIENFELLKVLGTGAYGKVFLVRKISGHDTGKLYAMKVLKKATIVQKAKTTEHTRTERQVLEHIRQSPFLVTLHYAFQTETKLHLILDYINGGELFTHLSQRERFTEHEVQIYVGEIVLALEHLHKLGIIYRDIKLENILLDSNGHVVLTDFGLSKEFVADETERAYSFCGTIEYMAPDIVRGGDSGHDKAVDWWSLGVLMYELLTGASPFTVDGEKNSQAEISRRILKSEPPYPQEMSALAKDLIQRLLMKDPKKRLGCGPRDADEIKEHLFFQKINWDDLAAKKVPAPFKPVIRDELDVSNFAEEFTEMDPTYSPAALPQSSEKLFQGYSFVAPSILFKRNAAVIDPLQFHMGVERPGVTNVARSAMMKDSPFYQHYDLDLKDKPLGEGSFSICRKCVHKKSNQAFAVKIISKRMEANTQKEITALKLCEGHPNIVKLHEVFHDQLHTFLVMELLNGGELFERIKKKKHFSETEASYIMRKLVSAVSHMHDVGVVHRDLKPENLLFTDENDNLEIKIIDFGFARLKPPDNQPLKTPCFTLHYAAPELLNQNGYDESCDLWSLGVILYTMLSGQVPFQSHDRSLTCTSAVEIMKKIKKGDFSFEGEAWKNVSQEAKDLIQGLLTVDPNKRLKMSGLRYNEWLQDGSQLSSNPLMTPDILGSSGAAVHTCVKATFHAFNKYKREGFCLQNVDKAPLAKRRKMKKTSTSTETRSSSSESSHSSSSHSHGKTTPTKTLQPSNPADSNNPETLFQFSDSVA
Chain of EPHB1 (human) (P54762 whole entry, looked up): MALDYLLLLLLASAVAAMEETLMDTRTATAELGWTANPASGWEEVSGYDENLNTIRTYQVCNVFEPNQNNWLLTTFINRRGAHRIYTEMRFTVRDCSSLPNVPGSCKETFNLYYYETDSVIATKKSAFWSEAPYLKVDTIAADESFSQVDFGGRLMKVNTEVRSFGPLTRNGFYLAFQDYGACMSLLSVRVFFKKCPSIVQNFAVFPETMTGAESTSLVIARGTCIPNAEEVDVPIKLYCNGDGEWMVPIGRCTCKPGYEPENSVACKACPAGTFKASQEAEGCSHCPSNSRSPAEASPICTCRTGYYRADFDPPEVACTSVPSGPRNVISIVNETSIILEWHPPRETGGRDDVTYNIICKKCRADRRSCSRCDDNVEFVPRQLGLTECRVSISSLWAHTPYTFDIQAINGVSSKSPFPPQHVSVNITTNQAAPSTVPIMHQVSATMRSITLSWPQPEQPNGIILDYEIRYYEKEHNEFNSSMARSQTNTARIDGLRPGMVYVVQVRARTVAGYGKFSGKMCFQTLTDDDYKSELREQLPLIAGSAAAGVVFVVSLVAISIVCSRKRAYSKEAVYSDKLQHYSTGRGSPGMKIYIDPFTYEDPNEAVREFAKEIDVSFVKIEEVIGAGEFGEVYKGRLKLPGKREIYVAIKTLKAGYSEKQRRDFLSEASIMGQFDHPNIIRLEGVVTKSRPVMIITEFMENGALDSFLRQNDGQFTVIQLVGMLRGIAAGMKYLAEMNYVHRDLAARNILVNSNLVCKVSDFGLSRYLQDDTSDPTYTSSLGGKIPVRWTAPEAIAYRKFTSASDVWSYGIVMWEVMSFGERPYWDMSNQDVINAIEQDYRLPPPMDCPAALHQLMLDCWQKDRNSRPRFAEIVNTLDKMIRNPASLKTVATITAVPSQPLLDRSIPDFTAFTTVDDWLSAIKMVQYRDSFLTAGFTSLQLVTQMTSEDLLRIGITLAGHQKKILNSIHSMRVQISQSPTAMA
Chain of MAP2K1 (human) (Q02750 whole entry, looked up): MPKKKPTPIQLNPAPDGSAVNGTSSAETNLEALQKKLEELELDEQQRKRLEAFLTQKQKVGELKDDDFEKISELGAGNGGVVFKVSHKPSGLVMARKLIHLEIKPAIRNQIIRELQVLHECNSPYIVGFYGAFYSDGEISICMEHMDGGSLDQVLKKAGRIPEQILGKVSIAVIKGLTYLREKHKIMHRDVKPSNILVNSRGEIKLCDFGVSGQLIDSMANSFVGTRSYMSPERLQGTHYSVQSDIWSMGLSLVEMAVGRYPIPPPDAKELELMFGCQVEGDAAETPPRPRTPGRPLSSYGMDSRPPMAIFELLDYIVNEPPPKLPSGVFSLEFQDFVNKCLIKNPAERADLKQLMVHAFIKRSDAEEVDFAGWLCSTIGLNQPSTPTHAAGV
Chain of RPS6KB1 (human), P23443 [T412E] (P23443 whole entry T412E, looked up): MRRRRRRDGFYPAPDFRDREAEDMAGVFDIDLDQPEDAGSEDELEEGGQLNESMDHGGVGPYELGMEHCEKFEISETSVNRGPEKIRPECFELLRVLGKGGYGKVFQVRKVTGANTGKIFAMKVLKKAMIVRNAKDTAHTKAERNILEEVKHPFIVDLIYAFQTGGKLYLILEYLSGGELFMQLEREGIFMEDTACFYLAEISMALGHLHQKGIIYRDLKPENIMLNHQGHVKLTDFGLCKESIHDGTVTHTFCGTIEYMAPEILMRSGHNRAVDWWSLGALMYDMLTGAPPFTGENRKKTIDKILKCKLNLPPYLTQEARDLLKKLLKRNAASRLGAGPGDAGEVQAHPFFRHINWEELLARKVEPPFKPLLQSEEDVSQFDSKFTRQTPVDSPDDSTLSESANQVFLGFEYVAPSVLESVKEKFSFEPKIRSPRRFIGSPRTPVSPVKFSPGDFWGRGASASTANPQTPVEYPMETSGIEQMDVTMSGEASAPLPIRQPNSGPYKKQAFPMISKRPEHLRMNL

NCC(=O)Nc1ccc(-n2nc(C(F)(F)F)cc2-c2ccc3c(ccc4ccccc43)c2)cc1 gave a residual activity ([1]; compound 1.0 µM) of 87%, a residual activity ([1]; compound 10.0 µM) of 54% and a residual activity (BTK (human); compound 1.0 µM) of 98%. The residual activity (BTK (human); compound 10.0 µM) was 96%, the residual activity (CDK2 CCNA2 (human); compound 1.0 µM) was 95% and the residual activity (CDK2 CCNA2 (human); compound 10.0 µM) was 95%. The residual activity (CHEK2 (human)) was 76%, the residual activity (CSK (human); compound 1.0 µM) was 97% and the residual activity (CSK (human); compound 10.0 µM) was 85%. The residual activity (CSNK1D (human); compound 1.0 µM) was 96%, the residual activity (CSNK1D (human); compound 10.0 µM) was 93% and the residual activity (EPHA4 (human); compound 1.0 µM) was 80%. For the same compound, the residual activity (EPHA4 (human); compound 10.0 µM) was 91%, the residual activity (EPHB1 (human); compound 1.0 µM) was 72% and the residual activity (EPHB1 (human); compound 10.0 µM) was 67%. For the same compound, the residual activity (EPHB4 (human)) was 116%, the residual activity (FLT1 (human); compound 1.0 µM) was 79% and the residual activity (FLT1 (human); compound 10.0 µM) was 89%. For the same compound, the residual activity (IKBKB (human); compound 1.0 µM) was 87%, the residual activity (IKBKB (human); compound 10.0 µM) was 88% and the residual activity (IKBKE (human)) was 101%. For the same compound, the residual activity (INSRR (human); compound 1.0 µM) was 91%, the residual activity (INSRR (human); compound 10.0 µM) was 75% and the residual activity (MAP2K1 (human); compound 1.0 µM) was 108%. It also gave a residual activity (MAP2K1 (human); compound 10.0 µM) of 107%, a residual activity (MAPK1 (human); compound 1.0 µM) of 101% and a residual activity (MAPK1 (human); compound 10.0 µM) of 88%. For the same compound, the residual activity (MAPK14 (human); compound 1.0 µM) was 100%, the residual activity (MAPK14 (human); compound 10.0 µM) was 80% and the residual activity (MAPK15 (human); compound 1.0 µM) was 79%. It also gave a residual activity (MAPK15 (human); compound 10.0 µM) of 75%, a residual activity (MAPK3 (human); compound 1.0 µM) of 80% and a residual activity (MAPK3 (human); compound 10.0 µM) of 63%. For the same compound, the residual activity (MAPKAPK3 (human); compound 1.0 µM) was 103%, the residual activity (MAPKAPK3 (human); compound 10.0 µM) was 97% and the residual activity (MKNK2 (human); compound 1.0 µM) was 91%. The residual activity (MKNK2 (human); compound 10.0 µM) was 109%, the residual activity (NEK2 (human); compound 1.0 µM) was 96% and the residual activity (NEK2 (human); compound 10.0 µM) was 92%. It also gave a residual activity (NEK6 (human); compound 1.0 µM) of 115%, a residual activity (NEK6 (human); compound 10.0 µM) of 63% and a residual activity (PAK7 (human); compound 1.0 µM) of 87%. For the same compound, the residual activity (PAK7 (human); compound 10.0 µM) was 107%, the residual activity (PIM2 (human); compound 1.0 µM) was 93% and the residual activity (PIM2 (human); compound 10.0 µM) was 98%. The residual activity (PLK1 (human); compound 1.0 µM) was 95%, the residual activity (PLK1 (human); compound 10.0 µM) was 111% and the residual activity (PRKAA1 or PRKAA2 (rat); compound 1.0 µM) was 99%. For the same compound, the residual activity (PRKAA1 or PRKAA2 (rat); compound 10.0 µM) was 105%, the residual activity (PRKACA (human); compound 1.0 µM) was 100% and the residual activity (PRKACA (human); compound 10.0 µM) was 93%. For the same compound, the residual activity (RIPK2 (human); compound 1.0 µM) was 93%, the residual activity (RIPK2 (human); compound 10.0 µM) was 81% and the residual activity (RPS6KA1 KD1 KD2 (human); compound 1.0 µM) was 87%. It also gave a residual activity (RPS6KA1 KD1 KD2 (human); compound 10.0 µM) of 63%, a residual activity (RPS6KA5 KD1 KD2 (human); compound 1.0 µM) of 110% and a residual activity (RPS6KA5 KD1 KD2 (human); compound 10.0 µM) of 46%. The residual activity ([2]; compound 1.0 µM) was 86%, the residual activity ([2]; compound 10.0 µM) was 21% and the residual activity (SRC (human); compound 1.0 µM) was 103%. The residual activity (SRC (human); compound 10.0 µM) was 135%, the residual activity (SYK (human)) was 85% and the residual activity (TTK (human); compound 1.0 µM) was 90%. The residual activity (TTK (human); compound 10.0 µM) was 86%.
